Patent US10335365B2, “Bladder cancer specific ligand peptides” (The Regents of the University of California, priority 2009, dated 2019)
Positions of bridges follow the written chain, without caps; N, C: chain ends. Non-standard residues stand in square brackets, D forms with d. No end group written: not given here.

Tested on: 5637 bladder cancer cells
Assay: Alanine walk and X5 glycine addition, bead binding to 5637 cells
Set-up: species or system human
Details: compared with parental PLZ4
Procedure: FIG. 6A-C. Binding of PLZ4 to ανβ3 integrin A. PLZ4 binds to ανβ3 integrin. Beads coated with PLZ4 peptides were incubated with K562 cells transfected with different integrin subunits. PLZ4 can only bind to K562 cells when ανβ3 integrin is expressed on the surface. B. Alanine walk to determine the amino acids important for cell binding. Each amino acid in PLZ4 (SEQ ID NO: 5) was replaced with alanine one at a time to generate beads covered with new peptides (SEQ ID NOS 24-30, respectively, in order of appearance) (alanine walk), and tested for their binding to 5637 bladder cancer cells. Semi-quantitative system was used to determine binding activity: ++++ means very strong binding with 75-100% bead surface covered by cells; +++ means strong binding with 50-74% bead surface covered by cells; […] binding with 25-49% bead surface covered by cells; + means weak binding with 1-24% bead surface covered by cells; − means no binding. C. The effects of glycine residues at the X5 position on the binding of PLZ4 to bladder cancer cells. The peptides on beads in each panel have the same backbone sequence (cQDGRKGFc; SEQ ID NO:11) as PLZ4 (cQDGRMGFc; SEQ ID NO:12) except the M at the X5 position has been replaced with K. One (c) to six (h) numbers of glycine were conjugated to K from Panel c to h (SEQ ID NO:13). The OBOC beads were incubated with 5637 TCC cells. […]

With “cQDGRKGFc ([dC]QDGRKGF[dC]; disulfide 1-9) [PLZ4 backbone with the M at the X5 position replaced with K]” the “binding of modified peptides on beads to 5637 cells” value was “no significant changes in binding”.
